Calls of active or inactive are those of the source. No cut-off for these calls is given here. Where only a bound is given, the exact number is not on record here.

Among the data in ChEMBL document CHEMBL4680168, “The development of a novel transforming growth factor-β (TGF-β) inhibitor that disrupts ligand-receptor interactions” (Eur J Med Chem, 2020) are Activity and IC50 values, retold here.

For series [1], the system named is A549. The series is described as follows: Cytotoxicity against human A549 cells assessed as reduction in cell viability at 20 to 80 uM up to 48 hrs by MTT assay. In kind it is cell-based. The conditions noted are these: a549, 48 h, dose 20-80 µM. A general note: Tetrazolium dyes change colour on reduction, which living cells bring about.
In series [2] the test system is A549. The series is described as follows: Inhibition of TGFBR1/TGFBR2 protein-protein interaction in human A549 cells assessed as reduction in TGF-beta1-induced alpha-SMA expression preincubated for 2 hrs followed by TGF-beta1 addition and measured after 4 hrs by Western blot analysis. Type of series: cell-based. To be noted: filed as antagonist, dose 20-80 µM, time 6.0 hrs. For orientation: In western blotting, separated proteins are transferred to a membrane and probed.

For series [3], the system named is A549. The series is described as follows: Inhibition of TGFBR1/TGFBR2 protein-protein interaction in human A549 cells assessed as reduction in TGF-beta1-induced MMP-2 expression preincubated for 2 hrs followed by TGF-beta1 addition and measured after 4 hrs by Western blot analysis. In kind it is cell-based. To be noted: filed as antagonist, dose 20-80 µM, time 6.0 hrs.

In series [4] the test system is A549. The series can be described thus: Inhibition of TGFBR1/TGFBR2 protein-protein interaction in human A549 cells assessed as inhibition of TGF-beta1-induced Erk1/Erk2 phosphorylation at 40 uM preincubated for 2 hrs followed by TGF-beta1-stimulation and measured after 4 hrs by Western blot analysis. In kind it is cell-based. The conditions noted are these: filed as antagonist, time 6.0 hrs.

The subject of series [5] is A549. The series can be described thus: Inhibition of TGFBR1/TGFBR2 protein-protein interaction in human A549 cells assessed as inhibition of TGF-beta1-induced Smad2/Smad3 phosphorylation at 40 uM preincubated for 2 hrs followed by TGF-beta1-stimulation and measured after 4 hrs by Western blot analysis. Type of series: cell-based. The conditions noted are these: filed as antagonist, time 6.0 hrs.

For series [6], the system named is A549. The series is described as follows: Inhibition of TGFBR1/TGFBR2 protein-protein interaction in human A549 cells assessed as inhibition of TGF-beta1-induced Erk1/Erk2 phosphorylation at 40 uM incubated for 6 hrs by Western blot analysis. To be noted: filed as antagonist. Type of series: cell-based.
Series [7] has as its system A549. The series is described as follows: Inhibition of TGFBR1/TGFBR2 protein-protein interaction in human A549 cells assessed as reduction in TGF-beta1-induced cell migration expression at 40 to 80 uM preincubated for 2 hrs followed by TGF-beta1 addition and measured after 24 hrs by scratch-wound healing assay. Type of series: cell-based. To be noted: filed as antagonist, dose 40-80 µM, time 26.0 hrs.

Series [8] can be described thus: Inhibition of TGFBR1/TGFBR2 protein-protein interaction in MLEC cells assessed as inhibition of TGF-beta1-induced dimer formation preincubated for 30 mins followed by TGF-beta1-stimulation and measured after overnight by pathhunter assay. To be noted: Neogale vison. Type of series: cell-based, Neovison vison.
Series [9] concerns A549. The series can be described thus: Inhibition of TGFBR1/TGFBR2 protein-protein interaction in human A549 cells assessed as inhibition of TGF-beta1-induced Akt phosphorylation at 40 uM incubated for 6 hrs by Western blot analysis. In kind it is cell-based. The conditions noted are these: filed as antagonist.
Series [10] can be described thus: Inhibition of TGFbeta signalling pathway in MLEC preincubated for 30 mins followed by TGF-beta1 addition and measured after 18 hrs by Steady-Glo luciferase assay. On the set-up: species or system Neovison vison.
A short description of series [11]: Cytotoxicity against MLEC assessed as reduction in cell viability at 50 uM by MTT assay. The conditions noted are these: neovison vison.
For series [12], the system named is A549. The series is described as follows: Inhibition of TGFBR1/TGFBR2 protein-protein interaction in human A549 cells assessed as reduction in TGF-beta1-induced fibronectin expression preincubated for 2 hrs followed by TGF-beta1 addition and measured after 4 hrs by Western blot analysis. Type of series: cell-based. The conditions noted are these: filed as antagonist, dose 20-80 µM, time 6.0 hrs.

Series [13] deals with A549. The series is described as follows: Inhibition of TGFBR1/TGFBR2 protein-protein interaction in human A549 cells assessed as inhibition of TGF-beta1-induced Akt phosphorylation at 40 uM preincubated for 2 hrs followed by TGF-beta1-stimulation and measured after 4 hrs by Western blot analysis. Type of series: cell-based. The conditions noted are these: filed as antagonist, time 6.0 hrs.

For series [14], the system named is A549. The series can be described thus: Inhibition of TGFBR1/TGFBR2 protein-protein interaction in human A549 cells assessed as reduction in TGF-beta1-induced cell migration expression preincubated for 2 hrs followed by TGF-beta1 addition and measured after 48 hrs by scratch-wound healing assay. In kind it is cell-based. To be noted: filed as antagonist, dose 20-80 µM, time 50.0 hrs.

Series [15] relates to A549. The series can be described thus: Inhibition of TGFBR1/TGFBR2 protein-protein interaction in human A549 cells assessed as reduction in TGF-beta1-induced cell migration expression preincubated for 2 hrs followed by TGF-beta1 addition and measured after 24 hrs by crystal violet staining based transwell assay. The conditions noted are these: filed as antagonist, dose 20-80 µM, time 26.0 hrs.

The test system of series [16] is A549. The series can be described thus: Inhibition of TGFBR1/TGFBR2 protein-protein interaction in human A549 cells assessed as inhibition of TGF-beta1-induced Smad2/Smad3 phosphorylation at 40 uM incubated for 6 hrs by Western blot analysis. In kind it is cell-based.

For `Cc1c(CNc2ccccc2)c(C)c(CNc2ccccc2)c(C)c1CNc1ccccc1`, the Activity entry with A549 [1] is “Non-Toxic”; with A549 [2], “Dose-dependent effect”; in the series with A549 [3], “Dose-dependent effect”; in series [11] it was “Non-Toxic”; with A549 [12] it was “Dose-dependent effect”; with A549 [14], “Dose-dependent effect”. For the same molecule, the Activity entry in the series with A549 [15] is “Dose-dependent effect”. The result in the series on A549 [4], in the series with A549 [5], with A549 [6], in the series with A549 [7], with A549 [9] and in the series on A549 [13] was Active. For the same molecule, the IC50 is 23.6 µM in series [8] and 5.3 µM in series [10] (read-out: IC50). Besides, in the series on A549 [16], the result was inactive.

For `COC(=O)c1cccc(NCc2c(C)c(CNc3cccc(C(=O)OC)c3)c(C)c(CNc3cccc(C(=O)OC)c3)c2C)c1`, the half-maximal inhibitory concentration (IC50) in series [10] (read-out: IC50) came out at 38.1 µM. Further, the Activity result in series [11] was “Non-Toxic”.

As to `c1ccc(CN2COc3c(c4c(c5c3CN(Cc3ccccc3)CO5)CN(Cc3ccccc3)CO4)C2)cc1`, the IC50 in series [10] (read-out: IC50) came to 18 µM.

For the molecule `Cc1c(CNCc2ccccc2)c(C)c(CNCc2ccccc2)c(C)c1CNCc1ccccc1`, the Activity result in series [11] is reported as “Toxic”.

As to `COC(=O)c1ccc(NCc2c(C)c(CNc3ccc(C(=O)OC)cc3)c(C)c(CNc3ccc(C(=O)OC)cc3)c2C)cc1`, the 50% inhibitory concentration (IC50) entry in [10] is “Not Active”. Also, in [11], the Activity entry is recorded as “Non-Toxic”.

Consider `COC(=O)c1cccc(CNCc2c(C)c(CNCc3cccc(C(=O)OC)c3)c(C)c(CNCc3cccc(C(=O)OC)c3)c2C)c1`, for which the Activity entry in series [11] was “Toxic”.

Consider `CC(=O)c1cccc(NCc2c(C)c(CNc3cccc(C(C)=O)c3)c(C)c(CNc3cccc(C(C)=O)c3)c2C)c1`, for which, in series [10], the half-inhibitory concentration (IC50) result is listed as “Not Active”. For the same molecule, in series [11], the Activity entry is reported as “Non-Toxic”.

With `COC(=O)c1ccc(CNCc2c(C)c(CNCc3ccc(C(=O)OC)cc3)c(C)c(CNCc3ccc(C(=O)OC)cc3)c2C)cc1`, the Activity result in series [11] was “Toxic”.

For the molecule `Cc1c(CNc2ccc(C(N)=O)cc2)c(C)c(CNc2ccc(C(N)=O)cc2)c(C)c1CNc1ccc(C(N)=O)cc1`, the half-inhibitory concentration (IC50) entry in [10] is “Not Active”. In series [11], the Activity result is reported as “Non-Toxic”.

In the case of `Cc1c(CNc2cccc(C(N)=O)c2)c(C)c(CNc2cccc(C(N)=O)c2)c(C)c1CNc1cccc(C(N)=O)c1`, in series [10] (read-out: IC50), the IC50 was 31.9 µM. Moreover, in series [11], the Activity entry is “Non-Toxic”.

Consider `CC(=O)c1ccc(NCc2c(C)c(CNc3ccc(C(C)=O)cc3)c(C)c(CNc3ccc(C(C)=O)cc3)c2C)cc1`, for which the half-maximal inhibitory concentration (IC50) in series [10] (read-out: IC50) is more than 50 µM. The Activity entry in [11] is reported as “Non-Toxic”.

As a reminder, the IC50 is the concentration at which inhibition is half-maximal.
